Test results from ChEMBL document CHEMBL5634138, “Discovery of a novel BLT2 antagonist for the treatment of inflammatory airway diseases” (Eur J Med Chem, 2023).

Key:
CHO = assay: (§1) Cytotoxicity against CHO cells assessed as inhibition of cell growth at 10 uM incubated overnight by MTS assay reltive to control; type: toxicity, cell-based, Cricetulus griseus; conditions: chinese hamster, cho, 10 µM
[1] = as §1; type: toxicity, cell-based, Cricetulus griseus; conditions: chinese hamster, CHO cells, read-out: Activity
[2] = target: T1, Leukotriene B4 receptor 2 (Mus musculus) (UniProt Q9JJL9); assay: Displacement of 3[H]LTB4 from mouse BLT2 by competitive binding assay; conditions: filed as agonist
T1 sequence (whole entry): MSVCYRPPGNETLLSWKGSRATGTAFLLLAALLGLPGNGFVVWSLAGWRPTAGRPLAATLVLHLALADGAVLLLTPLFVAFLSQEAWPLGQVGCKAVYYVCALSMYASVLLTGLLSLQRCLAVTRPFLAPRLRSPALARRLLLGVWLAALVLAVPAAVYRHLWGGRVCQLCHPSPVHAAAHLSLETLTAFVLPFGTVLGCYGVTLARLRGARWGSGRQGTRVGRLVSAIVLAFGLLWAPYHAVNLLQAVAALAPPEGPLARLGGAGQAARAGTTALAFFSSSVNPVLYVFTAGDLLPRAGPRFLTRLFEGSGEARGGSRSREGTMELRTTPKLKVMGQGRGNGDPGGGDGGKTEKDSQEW

[3] = target: T2, Leukotriene B4 receptor 2 (Mus musculus, UniProt Q9JJL9); assay: Agonist activity at mouse BLT2 expressed in CHO cells assessed as induction of calcium accumulation; type: functional, cell-based
T2 sequence (Q9JJL9 whole entry): T1 sequence (whole entry)

Mus musculus [4] = assay: Anti-asthmatic activity against OVA/LPS induced BALB/c mouse model assessed as reduction in bronchial hyper-response at 10 mg/kg, ip for one hr before every challenge on day 14 to 16 and measured after 17 days relative to control; type: functional; parameters: scale not given: the % may be the effect or the level left; conditions: time 17 day
Mus musculus [5] = assay: Anti-asthmatic activity against OVA/LPS induced BALB/c mouse model assessed as decrease in bronchoalveolar lavage fluid (BALF) IL-4 level at 10 mg/kg, ip by ELISA method relative to control; type: functional; parameters: scale not given: the % may be the effect or the level left
Mus musculus [6] = assay: Anti-asthmatic activity against OVA/LPS induced BALB/c mouse model assessed as decrease in bronchoalveolar lavage fluid (BALF) IL-13 level at 10 mg/kg, ip by ELISA method relative to control; type: functional; parameters: scale not given: the % may be the effect or the level left
Mus musculus [7] = assay: Anti-asthmatic activity against OVA/LPS induced BALB/c mouse model assessed as decrease in bronchoalveolar lavage fluid (BALF) IL-5 level at 10 mg/kg, ip by ELISA method relative to control; type: functional; parameters: scale not given: the % may be the effect or the level left

Structure (SMILES)	Activity (CHO)	other results
CCCCC(=O)N(Cc1ccc(-c2ccc(C(=O)NCC(=O)O)cc2)cc1)c1ccccc1	Non-Toxic	–
CCCCC(=O)N(Cc1ccc(-c2ccc(N)cc2)cc1)c1ccccc1	Non-Toxic	–
CCCCC(=O)N(Cc1ccc(-c2ccc(O/C=C/C(=O)O)cc2)cc1)c1cccc(F)c1	Non-Toxic	–
CCCCC(=O)N(Cc1ccc(-c2ccccc2CCC(=O)O)cc1)c1ccccc1	–	inhibition at 10 µM [1]: 4%
CCCCC(=O)N(Cc1ccc(-c2ccc(O)cc2)cc1)c1ccccc1	Non-Toxic	–
CCCCC(=O)N(Cc1ccc(-c2ccccc2C(=O)O)cc1)c1ccccc1	–	Activity [2]: 5 nM; EC50 [3]: 20 nM
CCCCC(=O)N(Cc1ccc(-c2ccc(OCCC(=O)O)cc2)cc1)c1cccc(F)c1	Non-Toxic	–
CCCCC(=O)N(Cc1ccc(-c2ccc(C(=O)O)cc2)cc1)c1ccccc1	Non-Toxic	–
CCc1cc(C(C)=O)c(O)cc1OCCCCCC(C)(C)c1nn[nH]n1 [LY-255283]	–	Activity (Mus musculus [4]): 69%; Activity (Mus musculus [5]): 38%; Activity (Mus musculus [6]): 38%; Activity (Mus musculus [7]): 48%
CCCCC(=O)N(Cc1ccc(-c2ccc(OCC(=O)O)cc2)cc1)c1cccc(C)c1	Non-Toxic	–
CCCCC(=O)N(Cc1ccc(-c2ccc(OC)cc2)cc1)c1cccc(C)c1	Non-Toxic	–
CCCCC(=O)N(Cc1ccc(-c2ccc(O)nc2)cc1)c1cccc(F)c1	Non-Toxic	–
CCCCC(=O)N(Cc1ccc(-c2ccc(OCC(=O)O)cc2)cc1)c1ccccc1	Non-Toxic	–
CCCCC(=O)N(Cc1ccc(-c2ccc(C(=O)O)cc2)cc1)c1cccc(F)c1	Non-Toxic	–
CCCCC(=O)N(Cc1ccc(-c2ccccc2CC(=O)O)cc1)c1ccccc1	–	inhibition at 10 µM [1]: 25%
